{"source": "patent US20190358181A1", "about": "“METHODS FOR AUTISM SPECTRUM DISORDER PHARMACOTHERAPY” (priority 2017, published 2019)", "system": "610 metabolites from 63 biochemical pathways", "assay": "Targeted broad-spectrum plasma metabolomic analysis (LC-MS/MS), paired pre-infusion vs post-infusion (2-days and 6-weeks)", "assay_type": "in vivo, human", "conditions": "for Linear Ratio / VIP Score / Z Abs / Z Score: plasma", "method": "Targeted, broad-spectrum, plasma metabolomic analysis of 610 metabolites from 63 biochemical pathways was performed by high performance liquid chromatography and tandem mass spectrometry (LC-MS/MS) on the samples collected from patients in Example 1. Venous blood was collected between the hours of 8 am and 5 pm, at least 3 hours after the last meal, into lithium-heparin vacutainer tubes (BD #367884). Plasma was separated by centrifugation at 900 g×10 minutes at room temperature within one hour of collection. The resulting fresh lithium-heparin plasma was transferred to labeled 1.2 ml or 2.0 ml externally threaded cryotubes with a minimum headspace air gap for storage at −80° C. for analysis. Samples were analyzed on an AB SCIEX QTRAP 5500 triple quadrupole mass spectrometer equipped with a Turbo V electrospray ionization (ESI) source, Shimadzu LC-20A UHPLC system, and a PAL CTC autosampler. Typically, 90 μl of plasma was thawed on ice and transferred to a 1.7 ml Eppendorf tube. Five (5.0) μl of a cocktail containing 25-35 commercial stable isotope internal standards, and 5.0 μl of 57 stable isotope internal standards that were custom-synthesized in E. coli NCM3722, Caenorhabditis elegans N2, and Komagataella phaffii (ATCC 76273; formerly known as Pichia pastoris) by metabolic labeling with 13C-glucose and 13C-bicarbonate, were added, mixed, and incubated for 10 min at 20° C. to permit small molecules and vitamins in the internal standards to associate with plasma binding proteins. Macromolecules (protein, DNA, RNA, glycans, etc.) were precipitated by extraction with 4 volumes (400 μl) of cold (−20° C.), acetonitrile:methanol (50:50) (LCMS grade, Cat #LC015-2.5 and GC230-4, Burdick & Jackson, Honeywell), vortexed vigorously, and incubated on crushed ice for 10 min, then removed by centrifugation at 16,000 g×10 min at 4° C. The supernatants containing the extracted metabolites and internal standards in the resulting 40:40:20 solvent mix of acetonitrile:methanol:water were transferred to labeled cryotubes and stored at −80° C. for LCMS/MS analysis.\nLC-MS/MS analysis was performed by scheduled multiple reaction monitoring (sMRM) under Analyst v1.6.2 software control in both negative and positive mode with rapid polarity switching (50 ms). Nitrogen was used for curtain gas (set to 30), collision gas (set to high), ion source gas 1 and 2 (set to 35). The source temperature was 500° C. Spray voltage was set to −4500 V in negative mode and 5500 V in positive mode. The values for Q1 and Q3 mass-to-charge ratios (m/z), declustering potential (DP), entrance potential (EP), collision energy (CE), and collision cell exit potential (CXP) were determined and optimized for each MRM for each metabolite. Ten microliters of extract was injected by PAL CTC autosampler via a 10 μl stainless steel loop into a 250 mm×2.0 mm, 4 μm polymer based NH2 HPLC column (Asahipak NH2P-40 2E, Showa Denko America, Inc., NY) held at 25° C. for chromatographic separation. The mobile phase was solvent A: 95% water with 20 mM (NH4)2CO3 (Sigma, Fluka Cat #74415-250G-F), 5% acetonitrile, and 38 mM NH4OH (Sigma, Fluka Cat #17837-100ML), final pH 9.75; solvent B: 100% acetonitrile. Separation was achieved using the following gradient: 0-3.5 min: 95% B, 3.6-8 min: 85% B, 8.1-13 min: 75% B, 13.5-35 min: 0% B, 36-46 min: 95% B, 46.1 min: end. The flow rate was 200 μl/min. Pump pressures ranged from 920-2600 psi over the course of the gradient. All the samples were kept at 4° C. during analysis. The chromatographic peaks were identified using MultiQuant (v3.0, Sciex), confirmed by manual inspection, and the peak areas integrated. […]", "key": {"[1]": {"conditions": "Branch Chain Amino Acid Metabolism, 2-days"}, "[2]": {"conditions": "Branch Chain Amino Acid Metabolism, 6-weeks"}, "[3]": {"conditions": "Chenodeoxyglycocholic acid, 6-weeks"}, "[4]": {"conditions": "Cholesterol, Cortisol, Non-Gonadal Steroid Metabolism, 6-weeks"}, "[5]": {"conditions": "Cholesterol, Cortisol, Non-Gonadal Steroid, 2-days"}, "[6]": {"conditions": "Cyclic adenosine monophosphate, 6-weeks"}, "[7]": {"conditions": "Deoxy guanosine diphosphate, 6-weeks"}, "[8]": {"conditions": "Eicosanoid and Resolvin Metabolism, 2-days"}, "[9]": {"conditions": "Endocannabinoid Metabolism, 2-days"}, "[10]": {"conditions": "Fatty Acid Oxidation and Synthesis, 2-days"}, "[11]": {"conditions": "Fatty Acid Oxidation and Synthesis, 6-weeks"}}}
{"smiles": "Cc1ccc(C(=O)Nc2ccc(S(=O)(=O)O)c3cc(S(=O)(=O)O)cc(S(=O)(=O)O)c23)cc1NC(=O)c1cccc(NC(=O)Nc2cccc(C(=O)Nc3cc(C(=O)Nc4ccc(S(=O)(=O)O)c5cc(S(=O)(=O)O)cc(S(=O)(=O)O)c45)ccc3C)c2)c1", "note": "[Suramin, suramin]", "values": [{"measurement": "Fold Enrichment (Obs/Exp)", "setting": "[1]", "value": 2.4}, {"measurement": "Fraction of Impact (VIP Score) Explained (% of 119.7)", "setting": "[1]", "value": 6, "unit": "%"}, {"measurement": "Impact (Sum VIP Score)", "setting": "[1]", "value": 7.3}, {"measurement": "Increased", "setting": "[1]", "value": 4}, {"measurement": "Observed Hits in the Top 61 Metabolites", "setting": "[1]", "value": 4}, {"measurement": "Decreased", "setting": "[2]", "value": 0}, {"measurement": "Fold Enrichment (Obs/Exp)", "setting": "[2]", "value": 3.0}, {"measurement": "Fraction of Impact (VIP Score) Explained (% of 94.6)", "setting": "[2]", "value": 8, "unit": "%"}, {"measurement": "Impact (Sum VIP Score)", "setting": "[2]", "value": 7.4}, {"measurement": "Increased", "setting": "[2]", "value": 4}, {"measurement": "Observed Hits in the Top 48 Metabolites", "setting": "[2]", "value": 4}, {"measurement": "Decreased", "setting": "Cardiolipin Metabolism, 2-days", "value": 0}, {"measurement": "Fold Enrichment (Obs/Exp)", "setting": "Cardiolipin Metabolism, 2-days", "value": 2.0}, {"measurement": "Fraction of Impact (VIP Score) Explained (% of 119.7)", "setting": "Cardiolipin Metabolism, 2-days", "value": 3, "unit": "%"}, {"measurement": "Impact (Sum VIP Score)", "setting": "Cardiolipin Metabolism, 2-days", "value": 3.1}, {"measurement": "Increased", "setting": "Cardiolipin Metabolism, 2-days", "value": 2}, {"measurement": "Observed Hits in the Top 61 Metabolites", "setting": "Cardiolipin Metabolism, 2-days", "value": 2}, {"measurement": "Decreased", "setting": "Ceramide Metabolism, 2-days", "value": 0}, {"measurement": "Fold Enrichment (Obs/Exp)", "setting": "Ceramide Metabolism, 2-days", "value": 0.2}, {"measurement": "Fraction of Impact (VIP Score) Explained (% of 119.7)", "setting": "Ceramide Metabolism, 2-days", "value": 1, "unit": "%"}, {"measurement": "Impact (Sum VIP Score)", "setting": "Ceramide Metabolism, 2-days", "value": 1.5}, {"measurement": "Increased", "setting": "Ceramide Metabolism, 2-days", "value": 1}, {"measurement": "Observed Hits in the Top 61 Metabolites", "setting": "Ceramide Metabolism, 2-days", "value": 1}, {"measurement": "Linear Ratio", "setting": "Chenodeoxycholic acid, 6-weeks", "value": 2.080}, {"measurement": "VIP Score", "setting": "Chenodeoxycholic acid, 6-weeks", "value": 1.670}, {"measurement": "Z Abs", "setting": "Chenodeoxycholic acid, 6-weeks", "value": 1.575}, {"measurement": "Z Score", "setting": "Chenodeoxycholic acid, 6-weeks", "value": 1.575}, {"measurement": "Linear Ratio", "setting": "[3]", "value": 2.858}, {"measurement": "VIP Score", "setting": "[3]", "value": 2.052}, {"measurement": "Z Abs", "setting": "[3]", "value": 1.650}, {"measurement": "Z Score", "setting": "[3]", "value": 1.650}, {"measurement": "Decreased", "setting": "[4]", "value": 0}, {"measurement": "Fold Enrichment (Obs/Exp)", "setting": "[4]", "value": 1.1}, {"measurement": "Fraction of Impact (VIP Score) Explained (% of 94.6)", "setting": "[4]", "value": 4, "unit": "%"}, {"measurement": "Impact (Sum VIP Score)", "setting": "[4]", "value": 3.5}, {"measurement": "Increased", "setting": "[4]", "value": 2}, {"measurement": "Observed Hits in the Top 48 Metabolites", "setting": "[4]", "value": 2}, {"measurement": "Decreased", "setting": "[5]", "value": 0}, {"measurement": "Fold Enrichment (Obs/Exp)", "setting": "[5]", "value": 0.4}, {"measurement": "Fraction of Impact (VIP Score) Explained (% of 119.7)", "setting": "[5]", "value": 2, "unit": "%"}, {"measurement": "Impact (Sum VIP Score)", "setting": "[5]", "value": 1.8}, {"measurement": "Increased", "setting": "[5]", "value": 1}, {"measurement": "Observed Hits in the Top 61 Metabolites", "setting": "[5]", "value": 1}, {"measurement": "Linear Ratio", "setting": "Cinnamoylglycine, 6-weeks", "value": 1.190}, {"measurement": "VIP Score", "setting": "Cinnamoylglycine, 6-weeks", "value": 1.790}, {"measurement": "Z Abs", "setting": "Cinnamoylglycine, 6-weeks", "value": 2.218}, {"measurement": "Z Score", "setting": "Cinnamoylglycine, 6-weeks", "value": 2.218}, {"measurement": "Linear Ratio", "setting": "Citric acid, 6-weeks", "value": 1.363}, {"measurement": "VIP Score", "setting": "Citric acid, 6-weeks", "value": 2.410}, {"measurement": "Z Abs", "setting": "Citric acid, 6-weeks", "value": 1.772}, {"measurement": "Z Score", "setting": "Citric acid, 6-weeks", "value": 1.772}, {"measurement": "Linear Ratio", "setting": "[6]", "value": 0.701}, {"measurement": "VIP Score", "setting": "[6]", "value": 1.962}, {"measurement": "Z Abs", "setting": "[6]", "value": 1.544}, {"measurement": "Z Score", "setting": "[6]", "value": "−1.544"}, {"measurement": "Linear Ratio", "setting": "Cysteamine, 6-weeks", "value": 1.157}, {"measurement": "VIP Score", "setting": "Cysteamine, 6-weeks", "value": 2.060}, {"measurement": "Z Abs", "setting": "Cysteamine, 6-weeks", "value": 2.007}, {"measurement": "Z Score", "setting": "Cysteamine, 6-weeks", "value": 2.007}, {"measurement": "Linear Ratio", "setting": "Cytosine, 6-weeks", "value": 1.932}, {"measurement": "VIP Score", "setting": "Cytosine, 6-weeks", "value": 2.442}, {"measurement": "Z Abs", "setting": "Cytosine, 6-weeks", "value": 2.582}, {"measurement": "Z Score", "setting": "Cytosine, 6-weeks", "value": 2.582}, {"measurement": "Linear Ratio", "setting": "Decanoylcarnitine, 6-weeks", "value": 0.644}, {"measurement": "VIP Score", "setting": "Decanoylcarnitine, 6-weeks", "value": 1.617}, {"measurement": "Z Abs", "setting": "Decanoylcarnitine, 6-weeks", "value": 1.157}, {"measurement": "Z Score", "setting": "Decanoylcarnitine, 6-weeks", "value": "−1.157"}, {"measurement": "Linear Ratio", "setting": "[7]", "value": 0.864}, {"measurement": "VIP Score", "setting": "[7]", "value": 1.915}, {"measurement": "Z Abs", "setting": "[7]", "value": 1.583}, {"measurement": "Z Score", "setting": "[7]", "value": "−1.583"}, {"measurement": "Decreased", "setting": "[8]", "value": 4}, {"measurement": "Fold Enrichment (Obs/Exp)", "setting": "[8]", "value": 2.2}, {"measurement": "Fraction of Impact (VIP Score) Explained (% of 119.7)", "setting": "[8]", "value": 6, "unit": "%"}, {"measurement": "Impact (Sum VIP Score)", "setting": "[8]", "value": 7.1}, {"measurement": "Increased", "setting": "[8]", "value": 0}, {"measurement": "Observed Hits in the Top 61 Metabolites", "setting": "[8]", "value": 4}, {"measurement": "Decreased", "setting": "[9]", "value": 1}, {"measurement": "Fold Enrichment (Obs/Exp)", "setting": "[9]", "value": 1.8}, {"measurement": "Fraction of Impact (VIP Score) Explained (% of 119.7)", "setting": "[9]", "value": 1, "unit": "%"}, {"measurement": "Impact (Sum VIP Score)", "setting": "[9]", "value": 1.7}, {"measurement": "Increased", "setting": "[9]", "value": 0}, {"measurement": "Observed Hits in the Top 61 Metabolites", "setting": "[9]", "value": 1}, {"measurement": "Decreased", "setting": "[10]", "value": 1}, {"measurement": "Fold Enrichment (Obs/Exp)", "setting": "[10]", "value": 0.2}, {"measurement": "Fraction of Impact (VIP Score) Explained (% of 119.7)", "setting": "[10]", "value": 2, "unit": "%"}, {"measurement": "Impact (Sum VIP Score)", "setting": "[10]", "value": 1.8}, {"measurement": "Increased", "setting": "[10]", "value": 0}, {"measurement": "Observed Hits in the Top 61 Metabolites", "setting": "[10]", "value": 1}, {"measurement": "Decreased", "setting": "[11]", "value": 3}, {"measurement": "Fold Enrichment (Obs/Exp)", "setting": "[11]", "value": 0.7}, {"measurement": "Fraction of Impact (VIP Score) Explained (% of 94.6)", "setting": "[11]", "value": 5, "unit": "%"}, {"measurement": "Impact (Sum VIP Score)", "setting": "[11]", "value": 5.0}]}
